Data set [1] can be described thus: Cell viability assay (WST-1) in human fibroblastic cell line. To be noted: human, HFF-1 fibroblast cells; HFF-1, 0.5 mM, 24 h, WST-1; read-out: cell viability (cell survival). The class given is cell-based. On the procedure: (§1) To conclude with this part of our work on the molecular responsiveness of the “vermellogens,” we decided to substantiate whether the bis-pyridinium core in the compounds would have or not a viologen-like reversible redox behavior. Thus, cyclic voltamograms were recorded for RaH·2Cl (2 mM) in buffered aqueous solutions at pH = 2 (0.05 M H3PO4/NaH2PO4), 7 (0.05 M NaH2PO4/Na2HPO4), and 12 (0.05 M Na2HPO4/Na3PO4). Those shown both the acidic (RaH^2+) and basic (Ra^+) forms of the “red thread” owning non-reversible redox peaks (Figure 1b).
(§2) Fibroblast cells (HFF-1; ATTC® SCRC-1041TM) were maintained in Dulbecco’s modified eagle’s medium (DMEM) supplemented with 10% FBS and 1% P/S and kept at 37 °C in a humidified atmosphere containing 5% CO2 until their use. HFF-1 cells were seeded in 96 well-plates at an initial density of 10^4 cells/well and allowed to attach for 24 h at 37 °C. The following day, culture medium was removed, replenished by fresh medium (90 µl) and cells were exposed to different concentration of R aH·2Cl and MV (10 µl; final concentrations 0.01, 0.05, 0.1, 0.5 and 1 mM). Control conditions included cells cultured in culture medium, but in absence of compound. Cells were further incubated for 24 h at 37°C and cell viability was monitored using the tetrazolium salt (WST-1) method.6 Absorbance at 450 nm was measured using a Synergy HTX Plate Reader (Biotek, Winooski, VT, USA) and the percent of cell viability (%) was calculated as follows:
(§3) Viability (%) = […]
(§4) Where Asample and Anegative control depict those absorbance values measured at 450 nm in presence and in absence of compound, respectively. All conditions were tested by triplicate in two independent experiments. Data were expressed as mean ± standard deviation (SD). Statistical analysis was performed by two-ways and one-way ANOVA with Tukey’s LSD post hoc test using IBM SPSS Statistics version 23. A p ≤ 0.05 was considered statistically significant.
(§5) Figure S 138: Compounds tested in WST-1 assay for cell viability.
(§6) 6 Carballo-Pedrares, N.; Kattar, A.; Concheiro, A.; Alvarez-Lorenzo, C.; Rey-Rico, Niosomes-based gene delivery systems for effective transfection of human mesenchymal stem cells. A. Matter. Sci. Eng. 2021, 18, 112307.

For the next data set, the system named is HFF-1 cells. The data set is described as above. In kind it is cell-based. To be noted: HFF-1, 1 mM, 24 h, WST-1. On the procedure:
as §1, §2, §3, §4, §5, §6
(In general: Formazan colour is commonly taken as a measure of viable cells.)

A short description of data set [2]: pKa determination by UV–vis acid–base titrations in water. Conditions: aqueous phosphate and carbonate buffers; RH^2+/R^+ or MH^+/M; UV–vis titrations in water, chloride salts. The class given is physicochemical. From the text: Next, in our study of the stimuli-responsiveness of the “vermellogens”, we proceeded to verify the new analogues as pH-based molecular switches, by conducting UV–vis acid–base titrations in water for the compounds Ra–eH·2Cl. All the new “vermellogens” show similar π–π* main absorption bands centered at λ^1max = 366–377 nm at neutral or slightly acidic pH. An increase in the basicity of the solution produces the decrease of the aforementioned bands and the concomitant rise of new absorptions associated with the deprotonated compounds and centered at λ^2max = 460–475 nm. The pKa values obtained by the aforementioned UV–vis titrations for Ra–eH·2Cl are quite similar, showing no dependence on the substituent on the pyridinium N^+ atoms within their structures (Table 1 and Figures S115–S125). Furthermore, to evaluate the effect of the two different pyridinium heterocycles on the observed anomalous pKa’s, two analogues were prepared (Ma–bH·Cl), in which one of these moieties was substituted by a neutral phenyl ring.
4.2. pK a determination for Rb by UV-Vis
Figure S 116: UV-Vis spectra for the titration of R b·2Cl at 20 μM in NaH 2PO4/Na2HPO4, KHCO3/K2CO3 and Na2HPO4/Na2PO4 buffers. On the top right: Absorption of R b+ at λ = 474 nm plotted against pH. pH V (mL) of V (mL) of V (mL) of V (mL) of V (mL) of ABS log[A474-(measured) solution A solution B solution C solution D solution E (474 ARb2+)/(ARb1+- […]
Table S 4: Experimental data obtained for the UV-Vis titration of R b·2Cl at 20 μM in NaH2PO4/Na2HPO4, KHCO3/K2CO3 and Na2HPO4/Na2PO4 buffer. Solution A: 20 μM of R b·2Cl and 0.05 M of NaH2PO4. Solution B: 20 μM of R b·2Cl and 0.05 M of NaHPO4. Solution C: 20 μM of R b·2Cl and 0.05 M of Na2PO4. Solution D: 20 μM of R b·2Cl and 0.05 M of KHCO3. Solution E: 20 μM of R b·2Cl and 0.05 M of […]
4.4. pK a determination for Rc by UV-Vis
Figure S 119: UV-Vis spectra for the titration of R c·2Cl at 20 μM in NaH 2PO4/Na2HPO4, KHCO3/K2CO3 and Na2HPO4/Na2PO4 buffers. On the top right: Absorption of R c+ at λ = 466 nm plotted against pH. pH V (mL) of V (mL) of V (mL) of V (mL) of V (mL) of ABS log[A466-(measured) solution A solution B solution C solution D solution E (466 ARc2+)/(ARc+- […]
Table S 5: Experimental data obtained for the UV-Vis titration of R c·2Cl at 20 μM in NaH2PO4/Na2HPO4, KHCO3/K2CO3 and Na2HPO4/Na2PO4 buffer. Solution A: 20 μM of Rc·2Cl and 0.05 M of NaH2PO4. Solution B: 20 μM of R c·2Cl and 0.05 M of NaHPO4. Solution C: 20 μM of R c·2Cl and 0.05 M of Na2PO4. Solution D: 20 μM of R c·2Cl and 0.05 M of KHCO3. Solution E: 20 μM of R c·2Cl and 0.05 M of […]
4.6. pK a determination for Rd by UV-Vis
Figure S 122: UV-Vis spectra for the titration of R d·2Cl at 20 μM in NaH 2PO4/Na2HPO4, KHCO3/K2CO3 and Na2HPO4/Na2PO4 buffers. On the top right: Absorption of R d+ at λ = 475 nm plotted against pH. pH V (mL) of V (mL) of V (mL) of V (mL) of V (mL) of ABS log[A475-(measured) solution A solution B solution C solution D solution E (475 ARd2+)/(ARd1+- […]
Table S 6: Experimental data obtained for the UV-Vis titration of R d·2Cl at 20 μM in NaH2PO4/Na2HPO4, KHCO3/K2CO3 and Na2HPO4/Na2PO4 buffer. Solution A: 20 μM of R d·2Cl and 0.05 M of NaH2PO4. Solution B: 20 μM of R d·2Cl and 0.05 M of NaHPO4. Solution C: 20 μM of R d·2Cl and 0.05 M of Na2PO4. Solution D: 20 μM of R d·2Cl and 0.05 M of KHCO3. Solution E: 20 μM of R d·2Cl and 0.05 M of […]
4.8. pK a determination for Re by UV-Vis
Figure S 125: UV-Vis spectra for the titration of R e·2Cl at 20 μM in NaH 2PO4/Na2HPO4, KHCO3/K2CO3 and Na2HPO4/Na2PO4 buffers. On the top right: Absorption of R e+ at λ = 460 nm plotted against pH. pH V (mL) of V (mL) of V (mL) of V (mL) of V (mL) of ABS log[A460-(measured) solution A solution B solution C solution D solution E (460 ARe2+)/(ARe1+- […]
Table S 7: Experimental data obtained for the UV-Vis titration of R e·2Cl at 20 μM in NaH2PO4/Na2HPO4, KHCO3/K2CO3 and Na2HPO4/Na2PO4 buffer. Solution A: 20 μM of R e·2Cl and 0.05 M of […]

As usually defined, the viability is a read-out of living cells in per cent, often relative to untreated cells. A word on the pKa: it is the negative logarithm of the acid dissociation constant. Regarding `C[n+]1ccc(/C=N/Nc2cc[n+](C)cc2)cc1` [RaH·2X, (E)-1-methyl-4-((2-(1-methylpyridin-1-ium-4-yl)hydrazineylidene)methyl)pyridin-1-ium], in data set [1], the viability at 24 h, 0.5 mM is ~90%. The “cell survival at the highest concentration tested” value in the data set with HFF-1 cells is reported as “slight reduction on cell survival”. Also, the pKa in data set [2] is 9.

For the origin of these results see PMC9682480, ““Vermellogens” and the Development of CB[8]-Based Supramolecular Switches Using pH-Responsive and Non-Toxic Viologen Analogues” (Journal of the American Chemical Society, 2022).
